Test [1] has as its system claudin-4 (CLDN4). The experiment in a line: Real-time quantitative PCR of claudin-4 expression in differentiated keratinocytes. Type of test: cell-based, human. Conditions: betaine 10-500 μM, 24 h. On the procedure:
(§1) Adult normal human primary keratinocytes (Invitrogen, Carlsbad, Calif., USA) were maintained in EpiLife® medium with 60 μM calcium (Invitrogen) supplemented with Human Keratinocyte Growth Supplement (HKGS) (Invitrogen) (basal medium) at 5% CO2 atmosphere. To differentiate the keratinocytes, the P5-P7 cells were plated on ThinCert™ cell culture inserts (Greiner Bio-one, Frickenhausen, Germany) at density of 10^5cells/cm^2. After overnight incubation at 5% CO2 atmosphere the basal medium was aspirated and changed to differentiation medium (DM) consisting of EpiLife® medium with 1.45 mM CaCl2 supplemented with human keratinocyte growth supplement and incubated for 4 days at 5% CO2 atmosphere. DM was changed both at both the apical and basolateral side every day. Test substances were given at fourth day after starting the differentiation.
(§2) Betaine (Danisco) were dissolved in DM, and applied to apical side of differentiated keratinocytes at amounts of 0, 10, 50, 100, 250 and 500 μM. The cells were incubated for 1, 12, and 24 hours at which points TEER was measured as described below. […]
The differentiated keratinocytes were treated with soluble metabolites produced by probiotics, probiotic whole bacterial cells, and bacterial cell lysates from the apical side for 1 h, 8 h and 24 h at which the TEER was measured. […]

Test [2] has as its system occludin (OCLN). Description: Real-time quantitative PCR of occludin expression in differentiated keratinocytes. Format: cell-based, human. The settings on record: 24 h, p<0.05. On the procedure:
as §1, with “Test substances were given at fourth day after starting the differentiation.” left out
as §2
(§3) Real-time quantitative PCR of claudin-4 (CLDN4), occludin (OCLN), zonula occludens-1 (ZO-1) was done with TaqMan gene expression assays (Applied biosystems, Foster City, Calif., USA) designed for each specific gene in an amplification reaction of 20 μl according to manufacturer's instructions with 7500 Fast Real-time PCR System (Applied Biosystems). […]

Test [3] relates to Adult normal human primary keratinocytes (tight junction integrity). Description: Transepithelial electrical resistance (TEER) of differentiated keratinocyte monolayers. The settings on record: for % Change in TEER (additional increase): 24 h. Format: cell-based. On the procedure: as §1, §2
The integrity of the monolayer was verified by measuring TEER before and after each time point using Millicell-ERS system (Millipore, Billerica, Mass., US) (26). The TEER obtained from the monolayer and the insert was subtracted with background TEER obtained from the insert to yield the monolayer resistance and multiplied with the area of the insert to obtain the result as ohm×cm^2. For the experiments with betaine and probiotics the results are expressed as a percentage change in TEER (% Change in TEER) which reflects the change in the resistance in the given time point compared to a control time point, which was the same cell monolayer before applying the test substances.

The test system of test [4] is zonula occludens-1 (ZO-1). The experiment in a line: Real-time quantitative PCR of zonula occludens-1 expression in differentiated keratinocytes. Type of test: cell-based, human. Conditions: betaine 10-500 μM, 24 h. On the procedure:
as §1, with “Test substances were given at fourth day after starting the differentiation.” left out
as §2, §3

The text below walks through data of patent US10555977B2, “Probiotic bacteria for the topical treatment of skin disorders” (DUPONT NUTRITION BIOSCIENCES APS, priority 2011, dated 2020).

The structures appear in SMILES notation.

Regarding `C[N+](C)(C)CC(=O)O` [betaine, Betaine], the “Expression of CLDN4” value in test [1] was “remained similar to the basal levels”. For the same compound, the “Expression of OCLN” value in test [2] (100 μM betaine) and in test [2] (250 μM betaine) was “decreased” in each case. Besides, the “% Change in TEER” value in test [3] (50 μM and higher concentrations of betaine, after 12 h, p<0.05 to p<0.001) was “remained increased”; in test [3] (50 μM betaine, after 1 hour, p<0.05), “increased”; in test [3] (lowest amount of betaine (10 μM), apical side), “remained at the basal level”. Also, the “% Change in TEER (additional increase)” value in test [3] (100 μM betaine, p<0.05, mean±SE) came to 41.8±2.8%; in test [3] (500 μM betaine, p<0.01, mean±SE) it was 47.8±4.2%. For the same compound, the “Expression of ZO-1” value in test [4] was “remained similar to the basal levels”.
